Assay results taken from patent publication US20090203776A1, “METHODS OF USING MENTHOL PROPYLENEGLYCOL-CARBONATE AND ANALOGS THEREOF FOR PRODUCING ANTI-INFLAMMATORY AND ANTI-ANGIOGENIC EFFECTS” (priority 2004, published 2009).

Legend:
[1] = test system: aortic rings (angiogenic sprouting / microvessel formation); assay: ex vivo rat aortic ring angiogenesis assay; format: cell-based, Sprague Dawley rats; settings: for % Inhibition (microvessel density) / Microvessel Density (pixel^2): day 10; for Microvessel Density (pixel^2): 5 aortic rings, ECGS as inducer; for anti-angiogenic effect (in words): rat aortic ring assay, 1, 10, and 100 μM
Text: The effect of racemic menthol propyleneglycol-carbonate on angiogenesis was studied by culturing aortic explants in three-dimensional matrix gels according to the procedure of Kruger and Figg (Kruger E. A. and Figg, W. D. Protein Binding Alters the Activity of Suramin, Carboxyamidotriazole, and UCN-01 in an ex Vivo Rat Aortic Ring Angiogenesis Assay Clinical Cancer Research 7:1867-1872, 2001). Thoracic aortas were excised from 8-week-old mail Sprague Dawley rats and the fibroadipose tissue was removed. The aortas were sectioned into 1-mm-long cross-sections, rinsed with Human Endothelial-SFM (GIBCO), placed on the Matrigel-coated wells, covered with additional 50 μl Matrigel, and allowed to gel for more than 30 min at 37° C., 5% CO2. All the rings were cultured in Human Endothelial-SFM (GIBCO) supplemented with […] of ECGS (Endothelial Cell Growth Supplement, Sigma) as an angiogenesis inducer. Racemic menthol propylene-carbonate diluted with enthanol was added to the culture medium at final concentrations of 1, 10, and 100 μM. Ethanol alone (1%) was added to the culture medium as a vehicle control. All assays were performed by using 5 aortic rings per sample. Aortic rings were photographed on day 10. The area of angiogenic sprouting was calculated using Image-Pro Plus software (Media Cybernetics). Microvessel densities are reported in square pixels.

Ha-CaT cells = assay: cell cytotoxicity assay, XTT; format: cell-based; settings: for Cell Viability (%): 48 hours, Ha-CaT
Protocol: 5×10^3 Ha-CaT cells were plated in each well of 96 well plates and racemic menthol propyleneglycol-carbonate was added at various concentrations. The plates were incubated for another 48 hours and the viable cells were measured by XTT Cell Proliferation Kit (Roche). More than 70% of Ha-CaT cells were viable even at high concentration of 100 μM.

[2] = test system: TPA-induced inflammatory response (mouse ear edema); assay: TPA-induced mouse ear edema, topical application; format: in vivo, mice; settings: for anti-inflammatory effect (in words): TPA-induced inflammatory response, topical; for Anti-inflammatory Effect (% of control): reduction in ear thickness vs control group
Protocol: Edema was induced in mice by topical application of 10 μl of TPA (Tetradecnoylphorbol acetate) in acetone (2.5 μg/ear) to both the inner and outer surface of one ear of each mouse used in the experiment. Each test compound, diluted with acetone to a concentration of 10% was applied topically to the inflamed mouse ear immediately after TPA application, so as to deliver 2.5 mg/ear. The reference drug, indomethacin (0.5 mg/ear), was administered as a positive control. The thickness of each ear was measured before treatment and 4 hours after induction of inflammation, using a micrometer (Mitutoyo Co.). Anti-inflammatory effect was expressed as the reduction in ear thickness with respect to the control group.

[3] = test system: HUVE (Human Umbilical Vein Endothelial) cells; assay: HUVE cell proliferation in the presence of bFGF, XTT; format: cell-based; settings: 48 hours; for Proliferation (%): bFGF only = 100, no bFGF = 0; for Average (relative cell number, XTT): with bFGF
Protocol: HUVE (Human Umbilical Vein Endothelial) cells were isolated from human umbilical cord veins by a method of Jaffe et al. (Jaffe, E. A., Nachman, R. L., Becker, C. G., and Minick, C. R. Culture of Human endothelial cells derived from umbilical veins. J. Clin. Invest. 52: 2745-2756, 1973). HUVE cells were confirmed by immunostaining with antibody against factor VIII. The cells were grown in M199 medium (Gibco BRL, Grand Island, N.Y.) supplemented with 10% fetal bovine serum, 100 units/mL penicillin, 100 μg/mL streptomycin, 50 μg/mL endothelial cell growth supplement, and 5 units/mL heparin at 37° C. in an atmosphere of 5% CO2-95% air.
1×10^4 HUVE cells were plated in each well of 96 well plates and five different concentrations ranging from 1 to 100 of racemic menthol propyleneglycol-carbonate were tested in the presence of bFGF used as maximum proliferation control. Cells were cultured for an additional 48 hours, and relative cell numbers in each well were determined by XTT Cell Proliferation Kit (Roche).

[4] = 2.5 mg/ear topical (10% in acetone), 4 hours after TPA 2.5 μg/ear

Compound: CC(O)COC(=O)OC1CC(C)CCC1C(C)C (racemic) [racemic menthol propyleneglycol-carbonate]
- % Inhibition (microvessel density) ([1]; 1 uM): 15%
- Microvessel Density (pixel^2) ([1]; 1 uM): 13.4 ± 4.1 pixel^2
- % Inhibition (microvessel density) ([1]; 10 uM): 22%
- Microvessel Density (pixel^2) ([1]; 10 uM): 12.2 ± 2.5 pixel^2
- % Inhibition (microvessel density) ([1]; 100 uM): 33%
- Microvessel Density (pixel^2) ([1]; 100 uM): 10.6 ± 3.8 pixel^2
- anti-angiogenic effect (in words) [1]: Satisfactory anti-angiogenic effect
- anti-angiogenic effect (in words) ([1]; listed as racemic menthol propylene-carbonate): inhibited microvessel formation in rat aortic ring assay in a dose dependent manner
- Cell Viability (%) (Ha-CaT cells; 0.1 uM): 100%
- Cell Viability (%) (Ha-CaT cells; 1.0 uM): 100%
- Cell Viability (%) (Ha-CaT cells; 5.0 uM): 96.5%
- Cell Viability (%) (Ha-CaT cells; 10.0 uM): 96.3%
- Cell Viability (%) (Ha-CaT cells; 50.0 uM): 81.8%
- cytotoxic effect on normal cells (in words) (Ha-CaT cells; Ha-CaT cells, up to 100 μM): non-toxic against normal cells
- anti-inflammatory effect (in words) [2]: Satisfactory anti-inflammatory effects
- Anti-inflammatory Effect (% of control) [2, 4]: 23 % of control
- Proliferation (%) ([3]; 1 μM): 97.6%
- Average (relative cell number, XTT) ([3]; 1 μM): 1.0623
- Proliferation (%) ([3]; 5 μM): 93.9%
- Average (relative cell number, XTT) ([3]; 5 μM): 1.0305
- Proliferation (%) ([3]; 10 μM): 95.3%
- Average (relative cell number, XTT) ([3]; 10 μM): 1.0425
- Proliferation (%) ([3]; 50 μM): 97.6%
- Average (relative cell number, XTT) ([3]; 50 μM): 1.0621
- Proliferation (%) ([3]; 100 μM): 80.0%
- Average (relative cell number, XTT) ([3]; 100 μM): 0.9121

Compound: CC1CCC(C(C)C)C(O)C1 (centres unmarked) [(l)-Menthol, reference compound]
- anti-inflammatory effect (in words) [2]: no appreciable anti-inflammatory effect
- Anti-inflammatory Effect (% of control) [2, 4]: 0 % of control

Compound: COc1ccc2c(c1)c(CC(=O)O)c(C)n2C(=O)c1ccc(Cl)cc1 [Indomethacin, reference compound]
- Anti-inflammatory Effect (% of control) ([2]; positive control, 0.5 mg/ear, 4 hours after TPA): 96 % of control

Compound: C=C(C)C1CCC(C)CC1OC(=O)OCC(C)O (centres unmarked) [isopulegol propyleneglycol-carbonate]
- anti-inflammatory effect (in words) [2]: Satisfactory anti-inflammatory effects
- Anti-inflammatory Effect (% of control) [2, 4]: 33 % of control

Compound: CC1CCC(C(C)C)C(OCC(O)CO)C1 (centres unmarked) [menthoxy-propane-1,2-diol]
- anti-inflammatory effect (in words) [2]: Satisfactory anti-inflammatory effects
- Anti-inflammatory Effect (% of control) [2, 4]: 27 % of control

Compound: CC1CCC(C(C)C)C(OC(=O)OCCCCCCCCCO)C1 (centres unmarked) [menthyl-9-hydroxynonyl-carbonate]
- anti-inflammatory effect (in words) [2]: Satisfactory anti-inflammatory effects
- Anti-inflammatory Effect (% of control) [2, 4]: 45 % of control
